Results from patent US20170008888A1 (KYORIN PHARMACEUTICAL CO., LTD., priority 2014, published 2017).
Read-outs that look alike come from different tables or passages of the source.

Experiments:
AurB or AurC = assay: Probe-based (AX9989) kinase profiling in Jurkat lysate: AurB or AurC; assay type: binding; conditions: for AurB or AurC Inhibition % at indicated screening concentration: screening concentration 1 μM
Summary of the method: (§1)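 Read-out: LC/MS intensity of desthiobiotinylated kinase active-site peptides, percent inhibition normalized to no-compound lysate. Jurkat lysate with 20 mM MnCl2 received compound for 15 min at room temperature, then 5 μM AX9989 probe; duplicates.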

ERK5 = target: T1, ERK5 (Homo sapiens, UniProt Q13164); assay: Probe-based (AX9989 acyl phosphate ATP probe) kinase profiling in Jurkat lysate: ERK5; assay type: binding; conditions: for IC50: Jurkat lysate
T1 construct: screened for activity against several kinases in Jurkat cells; endogenous in cells; host or cells: Jurkat cell lysate
T1 sequence (Q13164 whole entry): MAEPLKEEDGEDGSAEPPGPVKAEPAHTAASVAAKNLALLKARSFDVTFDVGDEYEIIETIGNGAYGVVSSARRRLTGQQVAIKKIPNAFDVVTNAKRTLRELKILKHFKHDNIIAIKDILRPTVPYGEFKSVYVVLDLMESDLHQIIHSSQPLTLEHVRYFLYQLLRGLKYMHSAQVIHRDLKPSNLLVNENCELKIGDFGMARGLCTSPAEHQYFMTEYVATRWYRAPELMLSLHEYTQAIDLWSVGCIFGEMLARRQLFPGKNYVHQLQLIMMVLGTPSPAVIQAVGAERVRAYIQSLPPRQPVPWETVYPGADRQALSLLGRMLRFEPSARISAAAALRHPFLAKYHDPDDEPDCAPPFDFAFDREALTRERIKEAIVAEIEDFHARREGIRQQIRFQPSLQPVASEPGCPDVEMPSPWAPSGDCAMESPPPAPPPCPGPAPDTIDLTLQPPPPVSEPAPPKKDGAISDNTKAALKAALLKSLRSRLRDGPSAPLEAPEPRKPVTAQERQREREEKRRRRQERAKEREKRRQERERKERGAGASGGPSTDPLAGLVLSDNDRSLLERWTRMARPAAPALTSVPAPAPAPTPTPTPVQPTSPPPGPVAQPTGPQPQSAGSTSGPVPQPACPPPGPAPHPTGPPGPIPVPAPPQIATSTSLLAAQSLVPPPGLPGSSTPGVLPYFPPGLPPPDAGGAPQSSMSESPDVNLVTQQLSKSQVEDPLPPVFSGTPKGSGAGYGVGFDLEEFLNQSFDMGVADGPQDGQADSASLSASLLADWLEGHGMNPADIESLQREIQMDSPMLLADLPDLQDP
Summary of the method: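 ERK5 IC50 values came from percent inhibition at the screening concentration, measured as loss of LC/MS signal of probe-labelled active-site peptides. Compound was added for 15 min at room temperature to Jurkat lysate (5 mg/ml, 20 mM MnCl2) before labelling with AX9989 ATP acyl phosphate probe at 5 μM.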

JAK1 = target: T2, JAK1 (Homo sapiens, UniProt P23458); assay: Probe-based (AX9989) kinase profiling in Jurkat lysate: JAK1; assay type: binding
T2 construct: screened for activity against several kinases in Jurkat cells; endogenous in cells; host or cells: Jurkat cell lysate
T2 sequence (P23458 whole entry): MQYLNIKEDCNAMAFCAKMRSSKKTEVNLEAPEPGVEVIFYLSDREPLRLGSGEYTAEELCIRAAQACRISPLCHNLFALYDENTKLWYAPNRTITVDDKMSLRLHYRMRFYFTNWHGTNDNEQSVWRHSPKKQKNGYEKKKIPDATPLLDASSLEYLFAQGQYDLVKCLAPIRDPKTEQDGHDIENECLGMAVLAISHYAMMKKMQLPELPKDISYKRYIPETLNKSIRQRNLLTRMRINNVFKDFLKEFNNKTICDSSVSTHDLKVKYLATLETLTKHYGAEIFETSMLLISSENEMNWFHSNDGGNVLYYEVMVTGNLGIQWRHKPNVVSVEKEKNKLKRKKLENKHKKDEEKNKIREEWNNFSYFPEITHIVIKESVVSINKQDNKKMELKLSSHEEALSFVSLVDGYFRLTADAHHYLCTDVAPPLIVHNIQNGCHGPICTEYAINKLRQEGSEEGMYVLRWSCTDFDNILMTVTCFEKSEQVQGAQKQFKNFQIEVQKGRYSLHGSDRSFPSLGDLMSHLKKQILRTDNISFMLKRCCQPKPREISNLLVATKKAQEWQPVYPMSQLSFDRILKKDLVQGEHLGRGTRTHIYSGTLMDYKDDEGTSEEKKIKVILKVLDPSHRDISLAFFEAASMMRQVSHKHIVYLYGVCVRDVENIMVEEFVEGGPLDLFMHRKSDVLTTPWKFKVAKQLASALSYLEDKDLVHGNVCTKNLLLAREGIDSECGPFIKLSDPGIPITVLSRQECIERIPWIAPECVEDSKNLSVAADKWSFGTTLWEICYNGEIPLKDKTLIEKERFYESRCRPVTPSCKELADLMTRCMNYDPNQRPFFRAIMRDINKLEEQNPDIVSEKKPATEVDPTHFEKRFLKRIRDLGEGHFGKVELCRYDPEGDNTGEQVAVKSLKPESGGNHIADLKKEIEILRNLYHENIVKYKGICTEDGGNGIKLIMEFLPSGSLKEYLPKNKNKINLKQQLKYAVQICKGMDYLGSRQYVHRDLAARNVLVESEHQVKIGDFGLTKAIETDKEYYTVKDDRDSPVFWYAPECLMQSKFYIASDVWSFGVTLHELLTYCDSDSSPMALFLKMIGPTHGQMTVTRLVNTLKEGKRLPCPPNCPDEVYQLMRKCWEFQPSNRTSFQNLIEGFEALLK
Summary of the method: as §1

AurA = target: T3, AurA (Homo sapiens, UniProt O14965); assay: Probe-based (AX9989) kinase profiling in Jurkat lysate: AurA; assay type: binding
T3 construct: screened for activity against several kinases in Jurkat cells; endogenous in cells; host or cells: Jurkat cell lysate
T3 sequence (O14965 1-403): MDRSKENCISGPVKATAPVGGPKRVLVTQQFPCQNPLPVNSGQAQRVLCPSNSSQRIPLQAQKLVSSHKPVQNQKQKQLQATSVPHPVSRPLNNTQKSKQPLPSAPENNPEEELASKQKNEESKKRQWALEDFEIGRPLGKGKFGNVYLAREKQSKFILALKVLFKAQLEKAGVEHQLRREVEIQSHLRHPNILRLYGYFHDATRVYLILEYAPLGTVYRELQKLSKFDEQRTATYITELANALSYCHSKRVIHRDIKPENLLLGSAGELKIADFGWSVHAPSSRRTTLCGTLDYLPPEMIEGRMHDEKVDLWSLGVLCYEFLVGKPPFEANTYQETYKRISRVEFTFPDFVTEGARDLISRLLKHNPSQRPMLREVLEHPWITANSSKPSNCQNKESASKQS
Summary of the method: as §1

TAO2 = target: T4, TAO2 (Homo sapiens, UniProt Q9UL54); assay: Probe-based (AX9989) kinase profiling in Jurkat lysate: TAO2; assay type: binding
T4 construct: screened for activity against several kinases in Jurkat cells; endogenous in cells; host or cells: Jurkat cell lysate
T4 sequence (Q9UL54 1-1235): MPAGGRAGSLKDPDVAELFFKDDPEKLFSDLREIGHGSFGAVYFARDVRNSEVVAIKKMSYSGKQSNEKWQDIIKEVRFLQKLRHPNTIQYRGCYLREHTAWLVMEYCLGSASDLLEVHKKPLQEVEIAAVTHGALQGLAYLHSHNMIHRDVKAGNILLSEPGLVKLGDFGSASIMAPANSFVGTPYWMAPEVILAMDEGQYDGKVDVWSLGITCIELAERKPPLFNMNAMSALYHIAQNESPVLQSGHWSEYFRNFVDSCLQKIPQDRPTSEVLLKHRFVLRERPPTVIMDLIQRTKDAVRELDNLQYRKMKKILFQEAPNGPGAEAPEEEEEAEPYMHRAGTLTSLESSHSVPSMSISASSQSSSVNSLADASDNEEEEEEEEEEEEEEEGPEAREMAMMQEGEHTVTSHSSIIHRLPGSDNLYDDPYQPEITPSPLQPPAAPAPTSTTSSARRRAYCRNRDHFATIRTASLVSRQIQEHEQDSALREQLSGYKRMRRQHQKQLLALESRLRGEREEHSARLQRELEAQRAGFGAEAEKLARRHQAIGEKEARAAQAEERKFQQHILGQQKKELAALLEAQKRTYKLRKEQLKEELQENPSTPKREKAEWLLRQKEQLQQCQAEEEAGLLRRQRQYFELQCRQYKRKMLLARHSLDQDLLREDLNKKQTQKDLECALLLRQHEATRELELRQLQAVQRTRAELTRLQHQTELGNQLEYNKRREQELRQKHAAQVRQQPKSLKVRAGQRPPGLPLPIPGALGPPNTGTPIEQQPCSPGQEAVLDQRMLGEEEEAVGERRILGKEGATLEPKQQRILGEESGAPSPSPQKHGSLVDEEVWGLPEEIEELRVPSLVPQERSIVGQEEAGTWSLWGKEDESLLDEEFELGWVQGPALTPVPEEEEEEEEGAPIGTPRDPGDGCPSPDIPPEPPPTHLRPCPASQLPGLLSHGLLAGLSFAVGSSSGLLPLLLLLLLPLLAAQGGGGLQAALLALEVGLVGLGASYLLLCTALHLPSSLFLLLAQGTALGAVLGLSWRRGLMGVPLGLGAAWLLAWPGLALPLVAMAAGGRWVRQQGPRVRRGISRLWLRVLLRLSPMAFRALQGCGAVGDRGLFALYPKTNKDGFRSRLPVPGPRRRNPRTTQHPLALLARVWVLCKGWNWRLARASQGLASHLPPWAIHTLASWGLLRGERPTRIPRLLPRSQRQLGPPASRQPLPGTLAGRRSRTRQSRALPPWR
Summary of the method: as §1

human PBMCs = assay: Human PBMC TNF-α response to endotoxin (ELISA); assay type: cell-based; conditions: 0.1 μg/ml LPS 16 h, read-out: EC50 for the inhibition of the human PBMC TNF-α response to endotoxin, ave. ± S.D.
Summary of the method: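 PBMCs at 2e6 cells/ml in RPMI 1640 with 10% charcoal-dextran-treated FBS were pre-treated 1 h at 37 °C with compound (4-point 1:5 dilution from 10 μM). Stimulation with 0.1 μg/ml E. coli 0111:B4 LPS for 16 h; TNF-α measured by ELISA (A450) in 25-fold diluted supernatant.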

AMPKa1 or AMPKa2 = assay: Probe-based (AX9989) kinase profiling in Jurkat lysate: AMPKa1 or AMPKa2; assay type: binding; conditions: for AMPKa1 or AMPKa2 Inhibition % at indicated screening concentration: screening concentration 1 μM
Summary of the method: as §1

ACK = target: T5, ACK (Homo sapiens, UniProt Q07912); assay: Probe-based (AX9989) kinase profiling in Jurkat lysate: ACK; assay type: binding
T5 construct: screened for activity against several kinases in Jurkat cells; endogenous in cells; host or cells: Jurkat cell lysate
T5 sequence (Q07912 whole entry): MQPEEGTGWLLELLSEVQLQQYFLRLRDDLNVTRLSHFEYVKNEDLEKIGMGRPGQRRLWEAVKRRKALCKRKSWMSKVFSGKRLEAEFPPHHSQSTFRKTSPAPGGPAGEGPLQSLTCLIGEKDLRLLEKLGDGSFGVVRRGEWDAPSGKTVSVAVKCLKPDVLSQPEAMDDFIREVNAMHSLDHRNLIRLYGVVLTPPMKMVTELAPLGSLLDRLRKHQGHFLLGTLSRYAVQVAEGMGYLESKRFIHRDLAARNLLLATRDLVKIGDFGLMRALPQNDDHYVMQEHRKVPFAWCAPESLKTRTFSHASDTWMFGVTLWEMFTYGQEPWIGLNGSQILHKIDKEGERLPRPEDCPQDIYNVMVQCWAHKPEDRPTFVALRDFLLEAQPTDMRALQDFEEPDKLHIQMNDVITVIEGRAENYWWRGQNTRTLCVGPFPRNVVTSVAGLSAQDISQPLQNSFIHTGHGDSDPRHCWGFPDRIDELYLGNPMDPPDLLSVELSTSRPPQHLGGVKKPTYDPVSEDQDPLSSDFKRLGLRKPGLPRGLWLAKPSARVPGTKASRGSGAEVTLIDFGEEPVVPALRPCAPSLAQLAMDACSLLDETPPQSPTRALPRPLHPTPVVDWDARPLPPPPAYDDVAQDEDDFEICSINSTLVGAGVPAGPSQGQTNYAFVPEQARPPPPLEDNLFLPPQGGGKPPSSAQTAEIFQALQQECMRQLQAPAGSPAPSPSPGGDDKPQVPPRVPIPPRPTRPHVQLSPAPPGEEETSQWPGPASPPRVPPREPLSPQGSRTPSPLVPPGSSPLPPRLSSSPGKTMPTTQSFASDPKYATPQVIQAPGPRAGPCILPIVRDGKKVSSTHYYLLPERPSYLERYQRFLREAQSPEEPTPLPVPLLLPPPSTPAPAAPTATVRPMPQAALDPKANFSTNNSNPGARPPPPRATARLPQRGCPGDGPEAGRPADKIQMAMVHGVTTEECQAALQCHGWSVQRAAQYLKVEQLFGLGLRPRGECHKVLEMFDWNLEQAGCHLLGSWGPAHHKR
Summary of the method: as §1

ABL or ARG = assay: Probe-based (AX9989) kinase profiling in Jurkat lysate: ABL or ARG; assay type: binding; conditions: for ABL or ARG Inhibition % at indicated screening concentration: screening concentration 1 μM
Summary of the method: as §1

[1] = calculated from percent inhibition of AX9989 labeling and the screening concentration
[2] = screening concentration 1.0 μM, read-out: Kinase inhibition % at indicated screening concentration: ERK5
[3] = screening concentration 1.0 μM, read-out: Kinase inhibition % at indicated screening concentration: JAK1
[4] = screening concentration 1.0 μM, read-out: Kinase inhibition % at indicated screening concentration: AurA
[5] = screening concentration 1.0 μM, read-out: Kinase inhibition % at indicated screening concentration: TAO2
[6] = screening concentration 1.0 μM, read-out: Kinase inhibition % at indicated screening concentration: ACK
[7] = calculated from percent inhibition and screening concentration, AX9989 probe
[8] = screening concentration 1 μM, read-out: ERK5 Inhibition % at indicated screening concentration
[9] = screening concentration 1 μM, read-out: JAK1 Inhibition % at indicated screening concentration
[10] = screening concentration 1 μM, read-out: AurA Inhibition % at indicated screening concentration
[11] = screening concentration 1 μM, read-out: TAO2 Inhibition % at indicated screening concentration
[12] = screening concentration 1 μM, read-out: ACK Inhibition % at indicated screening concentration

| Structure (SMILES) | Kinase inhibition % at indicated screening concentration: AurB or AurC (AurB or AurC; screening concentration 1.0 μM) | IC50 (ERK5; [1]) | inhibition at 1 µM (ERK5; [2]) | inhibition at 1 µM (JAK1; [3]) | inhibition at 1 µM (AurA; [4]) | inhibition at 1 µM (TAO2; [5]) | EC50 (human PBMCs) | Kinase inhibition % at indicated screening concentration: AMPKa1 or AMPKa2 (AMPKa1 or AMPKa2; screening concentration 1.0 μM) | inhibition at 1 µM (ACK; [6]) | Kinase inhibition % at indicated screening concentration: ABL or ARG (ABL or ARG; screening concentration 1.0 μM) | also measured |
| --- | --- | --- | --- | --- | --- | --- | --- | --- | --- | --- | --- |
| Cc1cc(CO)ccc1Nc1cc2c(cn1)N(C)C(=O)c1ccccc1N2C [Compound 85, 3-(4-(hydroxymethyl)-2-methylphenylamino)-5,11-dimethyl-5H-benzo[e]pyrido[3,4-b][1,4]diazepin-10(11H)-one] | E (E is ≦35%) | 101 to 500 nM | 75 to 90% | ≤ 35% | ≤ 35% | ≤ 35% | 1350 nM | E (E is ≦35%) | ≤ 35% | E (E is ≦35%) | – |
| COc1cccnc1Nc1cc2c(cn1)N(C)C(=O)c1ccccc1N2C [Compound 14] | E (E is ≦35%) | > 500 nM | > 90% | ≤ 35% | ≤ 35% | ≤ 35% | 2850 nM | E (E is ≦35%) | ≤ 35% | E (E is ≦35%) | – |
| Cc1cc(C(=O)N2CC[C@@H](N(C)C)C2)ccc1Nc1cc2c(cn1)N(C)C(=O)c1ccccc1N2C [Compound 32] | – | ≤ 50 nM | – | – | – | – | 6360 nM | – | – | – | Kinase inhibition % at indicated screening concentration: AurB or AurC (AurB or AurC; screening concentration 0.1 μM): E (E is ≦35%); inhibition at 0.1 µM (ERK5; screening concentration 0.1 μM, read-out: Kinase inhibition % at indicated screening concentration: ERK5): 75 to 90%; inhibition at 0.1 µM (JAK1; screening concentration 0.1 μM, read-out: Kinase inhibition % at indicated screening concentration: JAK1): ≤ 35%; inhibition at 0.1 µM (AurA; screening concentration 0.1 μM, read-out: Kinase inhibition % at indicated screening concentration: AurA): ≤ 35%; inhibition at 0.1 µM (TAO2; screening concentration 0.1 μM, read-out: Kinase inhibition % at indicated screening concentration: TAO2): ≤ 35%; Kinase inhibition % at indicated screening concentration: AMPKa1 or AMPKa2 (AMPKa1 or AMPKa2; screening concentration 0.1 μM): E (E is ≦35%); inhibition at 0.1 µM (ACK; screening concentration 0.1 μM, read-out: Kinase inhibition % at indicated screening concentration: ACK): ≤ 35%; Kinase inhibition % at indicated screening concentration: ABL or ARG (ABL or ARG; screening concentration 0.1 μM): E (E is ≦35%) |
| Cc1cc(C#N)ccc1Nc1cc2c(cn1)N(C)C(=O)c1ccccc1N2C [Compound 89] | E (E is ≦35%) | 101 to 500 nM | 50 to 75% | ≤ 35% | ≤ 35% | ≤ 35% | 1750 nM | E (E is ≦35%) | ≤ 35% | E (E is ≦35%) | – |
| COc1cc(C)c(Nc2cc3c(cn2)N(C)C(=O)c2ccccc2N3C)cn1 [Compound 116] | E (E is ≦35%) | > 500 nM | 50 to 75% | ≤ 35% | ≤ 35% | ≤ 35% | 4370 nM | E (E is ≦35%) | ≤ 35% | E (E is ≦35%) | – |
| CCOc1cc(C(=O)N2CCN(C3CCN(C)CC3)CC2)ccc1Nc1cc2c(cn1)N(C)C(=O)c1ccccc1N2C1CC1 [Compound T79] | – | – | – | – | – | – | 7200 nM | – | – | – | AurB or AurC Inhibition % at indicated screening concentration (AurB or AurC): E (E is ≦35%); IC50 (ERK5; [7]): ≤ 50 nM; inhibition at 1 µM (ERK5; [8]): > 90%; inhibition at 1 µM (JAK1; [9]): ≤ 35%; inhibition at 1 µM (AurA; [10]): ≤ 35%; inhibition at 1 µM (TAO2; [11]): ≤ 35%; AMPKa1 or AMPKa2 Inhibition % at indicated screening concentration (AMPKa1 or AMPKa2): E (E is ≦35%); inhibition at 1 µM (ACK; [12]): ≤ 35%; ABL or ARG Inhibition % at indicated screening concentration (ABL or ARG): E (E is ≦35%) |
| CCOc1cc(C)ccc1Nc1cc2c(cn1)N(C)C(=O)c1ccccc1N2C [Compound 95] | E (E is ≦35%) | > 500 nM | ≤ 35% | ≤ 35% | ≤ 35% | ≤ 35% | 3730 nM | E (E is ≦35%) | ≤ 35% | E (E is ≦35%) | – |
| COc1ccc(Nc2cc3c(cn2)N(C)C(=O)c2ccccc2N3C)c(C)c1 [Compound 41] | E (E is ≦35%) | 101 to 500 nM | 75 to 90% | ≤ 35% | ≤ 35% | ≤ 35% | 7610 nM | E (E is ≦35%) | ≤ 35% | E (E is ≦35%) | – |
| Cc1c(Nc2cc3c(cn2)N(C)C(=O)c2ccccc2N3C)cnn1C [Compound 59] | E (E is ≦35%) | 101 to 500 nM | 75 to 90% | ≤ 35% | ≤ 35% | ≤ 35% | 5840 nM | E (E is ≦35%) | ≤ 35% | E (E is ≦35%) | – |
| CCOc1cc(C(=O)N2CCCNCC2)ccc1Nc1cc2c(cn1)N(C)C(=O)c1scnc1N2C [Compound T7] | – | – | – | – | – | – | 340 nM | – | – | – | AurB or AurC Inhibition % at indicated screening concentration (AurB or AurC): E (E is ≦35%); IC50 (ERK5; [7]): 50 to 100 nM; inhibition at 1 µM (ERK5; [8]): > 90%; inhibition at 1 µM (JAK1; [9]): ≤ 35%; inhibition at 1 µM (AurA; [10]): ≤ 35%; inhibition at 1 µM (TAO2; [11]): ≤ 35%; AMPKa1 or AMPKa2 Inhibition % at indicated screening concentration (AMPKa1 or AMPKa2): E (E is ≦35%); inhibition at 1 µM (ACK; [12]): ≤ 35%; ABL or ARG Inhibition % at indicated screening concentration (ABL or ARG): E (E is ≦35%) |
